Literature values, collected in article PMC5028780, “Receptor and transporter binding and activity profiles of albiflorin extracted from Radix paeoniae Alba” (Scientific Reports, 2016).

How the values were obtained:
h5-HT2C receptors = conditions: reference not given; cited from earlier work
5-HT2C sites = tested on: 5-HT2C sites; design: method as in PMID 11454919, PMID 10621762; conditions: antagonist properties; cited from earlier work

Structure (SMILES) | affinity for h5-HT2C receptors (h5-HT2C receptors) | affinity at 5-HT2C sites (5-HT2C sites)
CCOc1ccccc1OC(c1ccccc1)C1CNCCO1 (stereo not drawn) [Reboxetine] | mild affinity | 
CN(C)CCCC1(c2ccc(F)cc2)OCc2cc(C#N)ccc21 (stereo not drawn) [citalopram] |  | modest affinities
CN(C)CCCN1c2ccccc2CCc2ccc(Cl)cc21 [clomipramine] |  | modest affinities
